Laboratory results taken from US6500842B1, “8-hydroxy-7-substituted quinolines as anti-viral agents” (Pharmacia & Upjohn Company, priority 1996, dated 2002).
Where “and” joins values, the source holds several entries; their conditions need not be identical. Equal values may be shown once. Read-outs that look alike come from different tables or passages of the source.

Biological target: T1, HCMV polymerase (Human cytomegalovirus, UniProt P08546)
T1 construct: made in house; host or cells: recombinant baculovirus-infected SF-9 cells
Assay: HCMV polymerase assay (scintillation proximity assay)
Assay type: biochemical
Experimental: The HCMV polymerase assay is performed using a scintillation proximity assay (SPA) as described in several references, such as N. D. Cook, et al., Pharmaceutical Manufacturing International, pages 49-53 (1992); K. Takeuchi, Laboratory Practice, September issue (1992); U.S. Pat. No. 4,568,649 (1986); which are incorporated by reference herein. Reactions are performed in 96-well plates. The assay is conducted in 100 μl volume with 5.4 mM HEPES (pH 7.5), 11.7 mM KCl, 4.5 mM MgCl2, 0.36 mg/ml BSA, and 90 nM ^3H-dTTP. Assays are run with and without CHAPS, (3-[(3-Cholamidopropyl)-dimethylammonio]-1-propane-sulfonate) at a final concentration of 2 mM. HCMV is diluted in enzyme dilution buffer containing 50% glycerol, 250 mM NaCl, 10 mM HEPES (pH 7.5), 100 pg/ml BSA, and 0.01% sodium azide. The HCMV polymerase, which is expressed in recombinant baculovirus-infected SF-9 cells and purified according to literature procedures, is added at 10% (or 10 μl) of the final reaction volume, i.e., 100 μl. Compounds are diluted in 50% DMSO and 10 μl are added to each well. Control wells contain an equivalent concentration of DMSO. Unless noted otherwise, reactions are initiated via the addition of 6 nM biotinylated poly(dA)-oligo(dT) template/primer to reaction mixtures containing the enzyme, substrate, and compounds of interest. Plates are incubated in a 25° C. of 37° C. H2O bath and terminated via the addition of 40 μl/reaction of 0.5 M EDTA (pH 8) per well. Reactions are terminated within the time-frame during which substrate incorporation is linear and varied depending upon the enzyme and conditions used, i.e., 30 min. for HCMV polymerase. Ten μl of streptavidin-SPA beads (20 mg/ml in PBS/10% glycerol) are added following termination of the reaction. Plates are incubated 10 min. at 37° C., then equilibrated to room temperature, and counted on a Packard Topcount. Linear regressions are performed and IC50's are calculated using computer software. Results of the testing of compounds of the present invention in this assay are shown in Tables 1, 2, 5, 9, 10, 11, 13 (except for the last compound which was tested under modified conditions) and 14 below.

[1] = Table 9, read-out: CMV pol Assay- IC50
[2] = Table 11, read-out: CMV pol Assay IC50
[3] = Table 10, CMV pol Assay, read-out: IC50

T1 sequence (P08546 whole entry): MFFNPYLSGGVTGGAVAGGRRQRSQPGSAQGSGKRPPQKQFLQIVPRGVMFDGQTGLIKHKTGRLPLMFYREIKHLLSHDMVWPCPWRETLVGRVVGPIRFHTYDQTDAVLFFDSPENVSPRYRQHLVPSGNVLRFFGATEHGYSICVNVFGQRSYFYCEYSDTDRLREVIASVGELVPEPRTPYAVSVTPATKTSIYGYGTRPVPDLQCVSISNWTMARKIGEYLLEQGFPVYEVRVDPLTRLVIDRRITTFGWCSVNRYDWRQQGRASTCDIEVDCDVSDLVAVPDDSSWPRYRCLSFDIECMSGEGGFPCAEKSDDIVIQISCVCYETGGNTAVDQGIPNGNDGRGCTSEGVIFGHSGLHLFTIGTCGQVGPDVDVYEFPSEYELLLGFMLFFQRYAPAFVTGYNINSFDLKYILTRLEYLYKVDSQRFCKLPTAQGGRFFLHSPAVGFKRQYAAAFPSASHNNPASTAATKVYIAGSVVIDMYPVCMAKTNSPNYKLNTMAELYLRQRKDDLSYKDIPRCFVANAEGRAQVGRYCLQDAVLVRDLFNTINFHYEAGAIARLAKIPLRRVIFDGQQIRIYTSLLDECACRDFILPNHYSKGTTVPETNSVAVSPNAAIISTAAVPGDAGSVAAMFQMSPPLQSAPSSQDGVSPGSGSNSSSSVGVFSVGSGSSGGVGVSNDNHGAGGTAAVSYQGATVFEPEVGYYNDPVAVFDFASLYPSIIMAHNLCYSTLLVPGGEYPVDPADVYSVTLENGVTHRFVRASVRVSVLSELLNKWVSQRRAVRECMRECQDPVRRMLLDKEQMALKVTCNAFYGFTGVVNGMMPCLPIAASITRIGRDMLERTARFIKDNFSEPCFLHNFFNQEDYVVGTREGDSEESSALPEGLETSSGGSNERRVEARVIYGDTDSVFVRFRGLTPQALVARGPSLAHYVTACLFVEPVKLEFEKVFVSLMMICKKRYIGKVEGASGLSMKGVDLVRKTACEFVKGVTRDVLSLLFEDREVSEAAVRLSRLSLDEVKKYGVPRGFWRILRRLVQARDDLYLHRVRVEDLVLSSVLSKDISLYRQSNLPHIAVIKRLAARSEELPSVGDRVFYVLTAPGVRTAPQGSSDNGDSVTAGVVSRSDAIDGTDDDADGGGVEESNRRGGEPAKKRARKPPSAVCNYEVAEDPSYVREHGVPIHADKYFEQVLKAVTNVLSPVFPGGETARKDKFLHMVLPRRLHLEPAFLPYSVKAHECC

SMILES: COc1cc(CNC(=O)c2ccc3cccnc3c2O)ccc1O
- IC50 [1]: 19.3 µM

SMILES: CC(C)(C)OC(=O)[C@H](Cc1ccc(OC(C)(C)C)cc1)Nc1nnc(NC(=O)c2ccc3cccnc3c2O)s1
- IC50 [2]: 4.5 µM

SMILES: O=C(NCCCCc1ccccc1)c1ccc2cccnc2c1O
- IC50 [1]: 7.4 µM

SMILES: O=C(NC(CO)c1ccccc1)c1ccc2cccnc2c1O (centres unmarked)
- inhibition at 25 µM (Table 14): 39%

SMILES: Cc1cccc(NC(=O)c2ccc3cccnc3c2O)c1 [drawing 224]
- IC50 [3]: 12.2 µM

SMILES: CCCc1ccc(NC(=O)c2ccc3cccnc3c2O)cc1
- IC50 [3]: 3.1 µM

SMILES: O=C(Nc1cccc(OCc2ccccc2)c1)c1ccc2cccnc2c1O
- IC50 [3]: 2.9 µM

SMILES: COC(=O)[C@H](Cc1ccc([N+](=O)[O-])cc1)NC(=O)c1ccc2cccnc2c1O
- IC50 [1]: 10.8 µM

SMILES: CCCCCCCNC(=O)c1ccc2ccc(/C=C/c3ccccc3)nc2c1O [Example 49, N-Heptyl-8-hydroxy-2-(2-phenylethenyl)-7-quinolinecarboxamide]
- IC50 (Table 5, pol type CMV, read-out: IC50): < 3.1 µM and 0.6 µM

SMILES: O=C(NCc1cccc(Cl)c1Cl)c1ccc2cccnc2c1O
- IC50 [1]: 14.6 µM

SMILES: O=C(NCCSc1cc(C(F)(F)F)nc2ccccc12)c1ccc2cccnc2c1O
- IC50 [1]: 12.6 µM

SMILES: Cc1ccc(NC(=O)c2ccc3cccnc3c2O)c(C)c1 [drawing 279]
- IC50 [3]: 8.1 µM

SMILES: C[C@@H](NC(=O)c1ccc2cccnc2c1O)c1ccccc1
- IC50 [1]: 24.5 µM

SMILES: O=C(N[C@H]1CC[C@H](OC(=O)c2ccc3cccnc3c2O)CC1)c1ccc2cccnc2c1O
- IC50 (Table 14, read-out: IC50): 4 µM

SMILES: O=C(N[C@H](c1ccccc1)[C@@H](O)c1ccccc1)c1ccc2cccnc2c1O
- IC50 [1]: 2.9 µM and 6.4 µM

SMILES: O=C(Nc1nnc(C(F)(F)F)s1)c1ccc2cccnc2c1O [drawing 303]
- IC50 [2]: 71 µM

SMILES: O=C(Nc1ccc(OCc2ccccc2)cc1)c1ccc2cccnc2c1O
- IC50 [3]: 4.1 µM

SMILES: O=C(NCCSc1ccccc1)c1ccc2cccnc2c1O
- IC50 [1]: 9.2 µM

SMILES: O=C(Nc1ccc2ccccc2c1)c1ccc2cccnc2c1O
- IC50 [3]: 15.5 µM

SMILES: N#CC(NC(=O)c1ccc2cccnc2c1O)c1ccccc1 (centres unmarked)
- IC50 (Table 14, read-out: IC50): 54 µM

SMILES: O=C(Nc1cccc(Cl)c1)c1ccc2cccnc2c1O
- IC50 [3]: 1.7 µM

SMILES: O=C(NCCc1ccc(Cl)cc1Cl)c1ccc2cccnc2c1O
- IC50 [1]: 9 µM

SMILES: O=C(Nc1cccc(C(F)(F)F)c1)c1ccc2cccnc2c1O
- IC50 [3]: 18.4 µM

SMILES: CCc1ccccc1NC(=O)c1ccc2cccnc2c1O
- IC50 [3]: 7.3 µM

SMILES: Cc1cc(C)cc(NC(=O)c2ccc3cccnc3c2O)c1
- IC50 [3]: 19.2 µM

SMILES: O=C(NCc1ccc(F)cc1Cl)c1ccc2cccnc2c1O
- IC50 (Table 14, read-out: IC50): 28 µM

SMILES: O=C(NCc1cccc(C(F)(F)F)c1)c1ccc2cccnc2c1O
- IC50 [1]: 8.5 µM

SMILES: CCCCCCC(C)NC(=O)c1ccc2cccnc2c1O (centres unmarked)
- IC50 [1]: 1.7 µM

SMILES: O=C(NCCc1ccccc1Cl)c1ccc2cccnc2c1O
- IC50 (Table 14, read-out: IC50): 26 µM

SMILES: O=C(NCc1ccc(C(F)(F)F)cc1)c1ccc2cccnc2c1O
- IC50 [1]: 13.7 µM

SMILES: CC1(C)C2CCC(CNC(=O)c3ccc4cccnc4c3O)C1C2 (centres unmarked)
- IC50 [1]: 1.5 µM

SMILES: O=C(NCc1ccccc1Cl)c1ccc2cccnc2c1O
- IC50 [1]: 19.7 µM

SMILES: COc1ccc(NC(=O)c2ccc3cccnc3c2O)cc1
- IC50 [3]: 30.1 µM

SMILES: Cc1c(NC(=O)c2ccc3cccnc3c2O)cccc1[N+](=O)[O-]
- IC50 [3]: 5.5 µM

SMILES: O=S(=O)(NCc1ccccc1)c1cc(Cl)c2cccnc2c1O [Example 22, 5-Chloro-8-hydrxoy-N-(phenylmehtyl)-7-quinolinesulfonamide]
- % Inhib (Conc 1.00e−004 M, Table 2): 98.2% and 99.7%
- % Inhib (Conc 1.30e−005 M, Table 2): 68.9% and 78.3%
- % Inhib (Conc 2.50e−005 M, Table 2): 90.7% and 95.2%
- % Inhib (Conc 5.00e−005 M, Table 2): 96.7% and 98.6%
- % Inhib (Conc 6.25e−006 M, Table 2): 33.3% and 51.5%
- IC50 (pol type CMV, Table 2, read-out: IC50): 8.6 µM and 4.5 µM

SMILES: O=C(NCCCc1ccccc1)c1ccc2cccnc2c1O
- IC50 [1]: 9.3 µM

SMILES: O=C(Nc1ccccc1-n1cccc1)c1ccc2cccnc2c1O
- IC50 [3]: 27.9 µM

SMILES: O=C(NCc1ccc(Cl)c(Cl)c1)c1ccc2cccnc2c1O
- IC50 [1]: 5.6 µM

SMILES: O=C(Nc1ccc(S(=O)(=O)Nc2ccc3cn[nH]c3c2)cc1)c1ccc2cccnc2c1O
- IC50 [3]: 2.4 µM

SMILES: O=C(NC1CCc2ccccc21)c1ccc2cccnc2c1O (centres unmarked)
- IC50 [1]: 13.2 µM

SMILES: O=C(NCCc1ccccc1F)c1ccc2cccnc2c1O
- inhibition at 25 µM (Table 14): 39%

SMILES: O=C(Nc1cc(Br)ccc1Br)c1ccc2cccnc2c1O
- IC50 [3]: 10.1 µM
